Reference: US20080214807A1, “Substituted Spiro Compounds and their Use for Producing Drugs” (Gruenenthal GmbH, priority 2005, published 2008)

How the values were obtained:
[1] = target: T1, VR1 (human) (Homo sapiens, UniProt Q8NER1); assay: Functional testing on vanilloid receptor VR1, FLIPR Ca2+ inflow assay (CHO K1 cells stably transfected with the VR1 gene); format: cell-based; settings: test compound 10 μM; for inhibition at 10 µM / activation at 10 µM: CHO-K1; for inhibition at 10 µM: read-out: VR1 (human) (% inhibition compared to 10 μM CP); for activation at 10 µM: read-out: VR1 (human) (% stimulation compared to 10 μM CP)
T1 construct: expressed in transfected cells; host or cells: CHO K1 cells (ECACC)
T1 sequence (Q8NER1 whole entry): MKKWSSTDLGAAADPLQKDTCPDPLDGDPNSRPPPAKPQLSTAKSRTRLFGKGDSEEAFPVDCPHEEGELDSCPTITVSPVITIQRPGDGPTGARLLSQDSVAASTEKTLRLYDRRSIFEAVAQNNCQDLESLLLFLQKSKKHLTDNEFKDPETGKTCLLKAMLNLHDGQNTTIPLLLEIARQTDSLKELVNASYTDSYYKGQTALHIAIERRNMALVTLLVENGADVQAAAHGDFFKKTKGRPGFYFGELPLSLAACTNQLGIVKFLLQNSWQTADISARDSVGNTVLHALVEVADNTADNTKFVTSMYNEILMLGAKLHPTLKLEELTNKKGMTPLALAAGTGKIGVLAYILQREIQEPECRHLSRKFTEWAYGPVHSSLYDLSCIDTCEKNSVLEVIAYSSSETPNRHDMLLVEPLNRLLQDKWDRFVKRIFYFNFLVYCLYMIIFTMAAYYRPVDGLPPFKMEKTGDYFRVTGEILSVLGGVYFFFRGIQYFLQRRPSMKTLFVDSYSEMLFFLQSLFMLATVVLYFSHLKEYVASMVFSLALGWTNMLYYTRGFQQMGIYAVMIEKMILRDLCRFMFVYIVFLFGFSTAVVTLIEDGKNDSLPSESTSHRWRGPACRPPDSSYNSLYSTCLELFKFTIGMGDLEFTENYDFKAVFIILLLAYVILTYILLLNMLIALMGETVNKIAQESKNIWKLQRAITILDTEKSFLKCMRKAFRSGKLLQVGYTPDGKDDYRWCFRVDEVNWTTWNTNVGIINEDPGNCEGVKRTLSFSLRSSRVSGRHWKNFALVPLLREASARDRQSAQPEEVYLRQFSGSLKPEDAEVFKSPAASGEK
Excerpt: II. Functional Testing Carried out on the Vanilloid Receptor (VR1)
The agonistic or antagonistic effect of the substances to be tested can also be determined on the vanilloid receptor (VR1) using the following assay. According to this assay, the Ca^2+ inflow is quantified through the channel using a Ca^2+-sensitive dye (type Fluo-4, Molecular Probes Europe BV, Leiden, Netherlands) in a fluorescent imaging plate reader (FLIPR, Molecular Devices, Sunnyvale, USA).
Chinese hamster ovary cells (CHO K1 cells, European Collection of Cell Cultures (ECACC) United Kingdom) were stably transfected with the VR1 gene. For functional testing, these cells were plated out on poly-D-lysine-coated black 96 well plates having a clear base (BD Biosciences, Heidelberg, Germany) at a density of 25,000 cells/well. The cells were incubated overnight at 37° C. and 5% CO2 in a culture medium (Ham's F12 nutrient mixture, 10-% by volume of FCS (foetal calf serum), 18 μg/ml L-proline). The next day the cells were incubated with Fluo-4 (Fluo-4 2 μM, 0.01% by volume of Pluronic F127, Molecular Probes in HBSS (Hank's buffered saline solution), Gibco Invitrogen GmbH, Karlsruhe, Germany) for 30 minutes at 37° C. Subsequently, the plates were washed 3 times with HBSS buffer and after further incubation for 15 minutes at room temperature used for Ca^2+ measurement in a FLI PR assay. The Ca^2+-dependent fluorescence was measured before and after the addition of the substances to be tested (λex wavelength=488 nm, λem=540 nm). Quantification was carried out by measuring the highest fluorescence intensity (FC, Fluorescence Counts) over time.
The FLIPR protocol consists of 2 substance additions. First the compounds to be tested (10 μM) were pipetted onto the cells and the Ca^2+ inflow was compared with the control (capsaicin 10 μM) (% activation based on the Ca^2+ signal after the addition of 10 μM capsaicin). After 5 minutes' incubation, 100 nM of capsaicin were administered and the Ca^2+ inflow was also determined.
Desensitising agonists and antagonists led to suppression of the Ca^2+ inflow. The % inhibition was calculated compared to the maximum achievable inhibition with 10 μM of capsaicin.

[2] = target: T2, rat-species vanilloid receptor 1 (VR1/TRPV1) (Rattus norvegicus, UniProt O35433); assay: Functional testing on vanilloid receptor 1 (VR1/TRPV1), FLIPR Ca2+ inflow assay in rat dorsal root ganglia cells; format: cell-based; settings: test compound 10 μM; for inhibition at 10 µM: read-out: VR1 (rat) (% inhibition compared to 10 μM CP); for activation at 10 µM: read-out: VR1 (rat) (% stimulation compared to 10 μM CP)
T2 construct: endogenous in cells; host or cells: primary cultured rat dorsal root ganglion cells
T2 sequence (O35433 whole entry): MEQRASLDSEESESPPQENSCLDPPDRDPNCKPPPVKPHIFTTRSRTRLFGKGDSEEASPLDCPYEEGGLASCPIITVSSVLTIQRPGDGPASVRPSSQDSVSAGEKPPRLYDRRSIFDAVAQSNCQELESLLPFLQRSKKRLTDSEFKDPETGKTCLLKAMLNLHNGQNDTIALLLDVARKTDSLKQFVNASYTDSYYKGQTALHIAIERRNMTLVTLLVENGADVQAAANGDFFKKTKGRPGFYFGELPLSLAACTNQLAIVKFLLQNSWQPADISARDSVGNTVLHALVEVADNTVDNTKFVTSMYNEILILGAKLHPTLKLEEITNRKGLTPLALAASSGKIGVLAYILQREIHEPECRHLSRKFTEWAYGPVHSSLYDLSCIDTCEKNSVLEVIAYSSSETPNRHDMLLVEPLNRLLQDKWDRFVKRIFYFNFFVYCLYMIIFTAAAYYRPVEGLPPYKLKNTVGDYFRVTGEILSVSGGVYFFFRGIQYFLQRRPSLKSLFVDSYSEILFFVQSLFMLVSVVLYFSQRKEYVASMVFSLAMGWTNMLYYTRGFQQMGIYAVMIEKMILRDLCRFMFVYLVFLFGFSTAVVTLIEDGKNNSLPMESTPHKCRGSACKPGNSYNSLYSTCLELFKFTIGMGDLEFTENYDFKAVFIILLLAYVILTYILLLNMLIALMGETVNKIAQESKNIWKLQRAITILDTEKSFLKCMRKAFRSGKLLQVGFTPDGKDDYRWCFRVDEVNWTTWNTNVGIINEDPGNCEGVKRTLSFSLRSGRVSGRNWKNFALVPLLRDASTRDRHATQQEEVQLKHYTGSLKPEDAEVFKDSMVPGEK
Excerpt: I. Functional Testing Carried out on the Vanilloid Receptor 1 (VRI/TRPV1 Receptor)
The agonistic or antagonistic effect of the substances to be tested can be determined on the rat-species vanilloid receptor 1 (VR1/TRPV1) using the following assay. According to this assay, the Ca^2+ inflow is quantified through the receptor channel using a Ca^2+-sensitive dye (type Fluo-4, Molecular Probes Europe BV, Leiden, Netherlands) in a fluorescent imaging plate reader (FLIPR, Molecular Devices, Sunnyvale, USA).
Complete medium: 50 mL HAMS F12 nutrient mixture (Gibco Invitrogen GmbH, Karlsruhe, Germany) with
10% by volume of FCS (foetal calf serum, Gibco Invitrogen GmbH, Karlsruhe, Germany, […]);
2 mM L-glutamine (Sigma, Munich, Germany);
1% by weight of AA solution (antibiotic/antimyotic solution, PAA, Pasching, Austria) and 25 ng/ml NGF medium (2.5 S, Gibco Invitrogen GmbH, Karlsruhe, Germany)
Cell culture plate: Poly-D-lysine-coated, black 96 well plates having a clear base (96 well black/clear plate, BD Biosciences, Heidelberg, Germany) were additionally coated with laminin (Gibco Invitrogen GmbH, Karlsruhe, Germany), the laminin being diluted with PBS (Ca—Mg-free PBS, Gibco Invitrogen GmbH, Karlsruhe, Germany) to a concentration of 100 μg/mL. Aliquots having a laminin concentration of 100 μg/mL were removed and stored at −20° C. The aliquots were diluted with PBS in a ratio of 1:10 to 10 μg/mL laminin and in each case 50 μL of the solution were pipetted into a recess in the cell culture plate. The cell culture plates were incubated for at least two hours at 37° C., the excess solution was removed by suction-filtration and the recesses were each washed twice with PBS. The coated cell culture plates were stored with excess PBS which was not removed until just before the feeding of the cells.
Preparation of the Cells:
The vertebral column was removed from decapitated rats and placed immediately into cold HBSS buffer (Hank's buffered saline solution, Gibco Invitrogen GmbH, Karlsruhe, Germany), i.e. buffer located in an ice bath, mixed with 1% by volume (percent by volume) of an AA solution (antibiotic/antimyotic solution, PAA, Pasching, Austria). The vertebral column was cut longitudinally and removed together with fasciae from the vertebral canal. Subsequently, the dorsal root ganglia (DRG) were removed and again stored in cold HBSS buffer mixed with 1% by volume of an AA solution. The DRG, from which all blood remnants and spinal nerves had been removed, were transferred in each case to 500 μL of cold type 2 collagenase (PAA, Pasching, Austria) and incubated for 35 minutes at 37° C. After the addition of 2.5% by volume of trypsin (PAA, Pasching, Austria), incubation was continued for 10 minutes at 37° C. After complete incubation, the enzyme solution was carefully pipetted off and 500 μL of complete medium were added to each of the remaining DRG. The DRG were in each case suspended several times, drawn through cannulae No. 1, No. 12 and No. 16 using a syringe and transferred to a 50 mL Falcon tube which was filled up to 15 mL with complete medium. The contents of each Falcon tube was in each case filtered through a 70 μm Falcon filter element and centrifuged for 10 minutes at 1,200 rpm and room temperature. The resulting pellet was in each case taken up in 250 μL of complete medium and the number of cells determined.
The number of cells in the suspension was set to 3×10^5 per mL and 150 μL of this suspension were in each case introduced into a recess in the cell culture plates coated as described hereinbefore. In the incubator the plates were left for two to three days at 37° C., 5% by volume of CO2 and 95% relative humidity. […]

[3] = 5 min incubation, then 100 nM capsaicin, relative to maximum achievable inhibition with 10 μM capsaicin
[4] = Ca2+ inflow relative to signal of 10 μM capsaicin (CP)

For `CSc1ccc(NC(=O)N2CCC3(CC2)CC(C(=O)N2CCN(c4ncccc4Cl)CC2)=NO3)cc1` [Example 58, 3-[4-(3-chloropyridin-2-yl)piperazine-1-carbonyl]-1-oxa-2,8-diazaspiro[4.5]dec-2-ene-8-carboxylic acid-(4-methylsulphanylphenyl)amide], the inhibition at 10 µM [1, 3] was 84.9%, the activation at 10 µM [1, 4] was 72.9% and the inhibition at 10 µM [2, 3] was 72.5%. It also gave an activation at 10 µM [2, 4] of 19.5%.
`CC(C)c1ccccc1NC(=O)N1CCC2(CC1)CC(C(=O)N1CCN(c3ncccc3Cl)CC1)=NO2` [Example 61, 3-[4-(3-chloropyridin-2-yl)piperazine-1-carbonyl]-1-oxa-2,8-diazaspiro[4.5]dec-2-ene-8-carboxylic acid-(2-isopropylphenyl)amide] gave an inhibition at 10 µM [1, 3] of -15.1%, an activation at 10 µM [1, 4] of 0.08% and an inhibition at 10 µM [2, 3] of 47%. For the same molecule, the activation at 10 µM [2, 4] was 0.47%.
In the case of `CC(C)c1ccc(NC(=O)N2CCC3(CC2)CC(C(=O)N2CCN(c4ncccc4Cl)CC2)=NO3)cc1` [Example 63, 3-[4-(3-chloropyridin-2-yl)piperazine-1-carbonyl]-1-oxa-2,8-diazaspiro[4.5]dec-2-ene-8-carboxylic acid-(4-isopropylphenyl)amide], the inhibition at 10 µM [1, 3] is reported as 15.8%, the activation at 10 µM [1, 4] is reported as 2.59% and the inhibition at 10 µM [2, 3] is reported as 78.9%. The activation at 10 µM [2, 4] was 24.5%.
`O=C(Nc1cccc(C(F)(F)F)c1)N1CCC2(CC1)CC(C(=O)N1CCN(c3ncccc3Cl)CC1)=NO2` [Example 68, 3-[4-(3-chloropyridin-2-yl)piperazine-1-carbonyl]-1-oxa-2,8-diazaspiro[4.5]dec-2-ene-8-carboxylic acid-(3-trifluoromethylphenyl)amide] was tested, and the inhibition at 10 µM [1, 3] was 24.9%, the activation at 10 µM [1, 4] was 16.4% and the inhibition at 10 µM [2, 3] was 58.1%. It also gave an activation at 10 µM [2, 4] of 6.55%.
With `COc1ccc(CNC(=O)C2=NOC3(CCN(C(=O)Nc4ccc(C(F)(F)F)cc4)CC3)C2)cc1OC` [Example 70, 1-oxa-2,8-diazaspiro[4.5]dec-2-ene-3,8-dicarboxylic acid-3-(3,4-dimethoxybenzylamide)-8-[(4-trifluoromethylphenyl)amide]] the “VR1 (human) (% inhibition compared to 10 μM CP)” value [1, 3] was −0.43%, the “VR1 (human) (% stimulation compared to 10 μM CP)” value [1, 4] was −0.18% and the “VR1 (rat) (% inhibition compared to 10 μM CP)” value [2, 3] was 67.41%. The “VR1 (rat) (% stimulation compared to 10 μM CP)” value [2, 4] was 0.35%.
In the case of `O=C(Nc1ccc(C(F)(F)F)cc1)N1CCC2(CC1)CC(C(=O)N1CCN(c3ncccc3Cl)CC1)=NO2` [Example 71, 3-[4-(3-chloropyridin-2-yl)piperazine-1-carbonyl]-1-oxa-2,8-diazaspiro[4.5]dec-2-ene-8-carboxylic acid-(4-trifluoromethylphenyl)amide], the inhibition at 10 µM [1, 3] is reported as 42%, the activation at 10 µM [1, 4] is reported as 34.7% and the inhibition at 10 µM [2, 3] is reported as 57.2%. It also gave an activation at 10 µM [2, 4] of 31.2%.
`CC(C)(C)c1ccc(NC(=O)N2CCC3(CC2)CC(C(=O)N2CCN(c4ncccc4Cl)CC2)=NO3)cc1` [Example 116, 3-[4-(3-chloropyridin-2-yl)piperazine-1-carbonyl]-1-oxa-2,8-diazaspiro[4.5]dec-2-ene-8-carboxylic acid-(4-tert-butylphenyl)amide] was tested, and the inhibition at 10 µM [1, 3] was 77%, the activation at 10 µM [1, 4] was 42% and the inhibition at 10 µM [2, 3] was 95%. It also gave an activation at 10 µM [2, 4] of 59%.
Work on `CC(C)(C)c1ccc(NC(=O)N2CCC3(CC2)CC(C(=O)N2CCN(c4ncccc4C(F)(F)F)CC2)=NO3)cc1` [Example 228, 3-[4-(3-trifluoromethylpyridin-2-yl)piperazine-1-carbonyl]-1-oxa-2,8-diazaspiro[4.5]dec-2-ene-8-carboxylic acid-(4-tert-butylphenyl)amide] yielded an inhibition at 10 µM [1, 3] of 48.1%, an activation at 10 µM [1, 4] of 7.07% and an inhibition at 10 µM [2, 3] of 100%. It also gave an activation at 10 µM [2, 4] of 17.2%.
With `O=C(Nc1ccc(S(F)(F)(F)(F)F)cc1)N1CCC2(CC1)CC(C(=O)N1CCN(c3ncccc3Cl)CC1)=NO2` [Example 229, 3-[4-(3-chloropyridin-2-yl)piperazine-1-carbonyl]-1-oxa-2,8-diazaspiro[4.5]dec-2-ene-8-carboxylic acid-(4-pentafluorosulphanylphenyl)amide] the inhibition at 10 µM [1, 3] was 37%, the activation at 10 µM [1, 4] was 10% and the inhibition at 10 µM [2, 3] was 94%. The activation at 10 µM [2, 4] was 45%.
